Measured values from patent publication US20260028390A1, “ALPHA1-ANTITRYPSIN FOR USE IN THE TREATMENT OF DISEASES OR DISORDERS OF THE NERVOUS SYSTEM SUCH AS CHRONIC INFLAMMATORY DEMYELINATING POLYNEUROPATHY” (Ageronix SA, priority 2022, published 2026).
“And” between values parts separate entries of the source, which are not always exact repeats. Equal entries are not always repeated.

Key:
plasma TNFα = experiment: Plasma TNFα concentration, CMT1A mouse study (50 mg/kg twice daily); type: in vivo; conditions: for Plasma TNFα concentration (Mean ± SEM): CMT1A mice
Description: (§1) Animals were split in 3 groups (wild-type control (subcutaneous 0.9% NaCl), CMT1A-vehicle (subcutaneous 0.9% NaCl), CMT1A-human alpha-1 antitrypsin (subcutaneous, twice daily, 50 mg/kg per injection)) of 3 mice each (3 weeks old males of 18±2.5 g at the beginning of study) and all went through the following protocol after 7 days of acclimation on site.
Starting from the age of 4 weeks, animals were subjected to blood samplings for the determination of interleukin-6 (IL-6) and tumor necrosing factor alpha (TNFα) levels, as described in FIG. 16.

CIDP mice [1] = experiment: Von Frey test (paw withdrawal threshold), CIDP mouse model; type: in vivo; conditions: for Von Frey, paw withdrawal threshold (Mean ± SD): CIDP mice; for von Frey test, Paw withdrawal threshold, group MEAN: group mean of 4 animals; for von Frey test, Paw withdrawal threshold, Mean/animal: per animal; for von Frey test, Paw withdrawal threshold, Mean/animal / von Frey test, Paw withdrawal threshold, set 1 / von Frey test, Paw withdrawal threshold, set 2 / von Frey test, Paw withdrawal threshold, set 3: listed as hAAT; for von Frey test, Paw withdrawal threshold, set 1 / von Frey test, Paw withdrawal threshold, set 2 / von Frey test, Paw withdrawal threshold, set 3: raw data per animal
Description: (§2) C57BL/6 mice were received at 8 weeks of age and housed under controlled conditions for the duration of the study. Three groups of 4 animals each were assigned to the following subcutaneous treatments twice daily at 7:00 AM and 7:00 PM for 2 weeks, from 20 to 35 days after the start of disease induction: • Wild type (WT) mice receiving the vehicle, 0.9% NaCl (positive control) • CIDP mice receiving the vehicle, 0.9% NaCl (negative control) • CIDP mice receiving human AAT (AAT), 50 mg/kg per injection
(§3) Disease induction consisted in subcutaneous injection of mouse sciatic nerve homogenate in phosphate buffer saline (PBS)+Freund's adjuvant mixture at 10 mL/kg. For each treatment, 3 different body sites injections were performed. Control mice also received three subcutaneous injections of PBS+Freund's adjuvant at the same 3 different body sites.
(§4) On the first (Day 20) and last (Day 35) day of treatment, the neuromuscular and performance of animals was tested with a rotarod test, grip test and a sensory test using the Von Frey filament test, as well as sciatic nerve electrophysiology test. After the last treatment at Day 35, these tests were repeated, animals were sacrificed and the left sciatic nerve was sampled for histological evaluation of the number and size of […].

CIDP mice [2] = experiment: Sciatic nerve electrophysiology (CMAP, NCV), CIDP mouse model; type: in vivo; conditions: for Compound muscle action potential (Mean ± SD) / Nerve conduction velocity (Mean ± SD): CIDP mice; for Electrophysiology, Amplitude / Electrophysiology, Conduction velocity / Electrophysiology, T1 distal / Electrophysiology, T2 proximal: per mouse, listed as hAAT
Description: as §2, §3, §4

[3] = test system: CMT1A mice B6.Cg-Tg(PMP22)C3Fbas/J; experiment: Grip strength, CMT mice treated with AAT 180 mg/kg/day sc; type: in vivo, mouse; conditions: for Grip strength, group Mean: 8 animals
Description: CMT MOUSE MODEL: Non-humanized CMT1A mice B6.Cg-Tg(PMP22)C3Fbas/J (three copies of the PMP22 gene), three groups of 8 animals each.
DOSAGE: 180 mg/kg/day non-clinical grade AAT (Sigma)
ADMINISTRATION: Subcutaneous (SC) (bi-daily injection of 90 mg/kg)
Animals were received at 6 weeks of age and housed under controlled conditions for the duration of the study. The study comprised two groups of 8 transgenic mice (CMT mice) each and one group of 8 age matched wild type (WT) C57B16 mice, serving as positive control. […]
The efficacy parameters included: • neuromuscular performance (rotarod latency to fall and grip strength test), • sciatic nerve electrophysiology (CMAP amplitude and NCV) • cytokine (IL-6 and TNFα), as well as NfL analysis • sciatic nerve histology (number of axons and axonal diameter),
After the last treatment on Day 15, these tests were repeated. Animals were then left untreated for 2 additional weeks to evaluate the duration of the treatment effect. Following the 2-week treatment-free period until 12 weeks of age (Day 30), the behavioural and electrophysiological tests were repeated.

[4] = test system: C3-PMP22 transgenic mice (CMT1A); experiment: Rotarod test, CMT1A mouse study (50 mg/kg twice daily); type: in vivo; conditions: for Rotarod latency, Mean/animal / Rotarod latency, set 1, individual animals / Rotarod latency, set 2, individual animals / Rotarod latency, set 3, individual animals: CMT1A + AAT; for Rotarod latency (Mean ± SEM): CMT1A mice
Text: As a murine model of CMT1A we used C3-PMP22 transgenic mice (B6.Cg-Tg(PMP22)C3Fbas/J, The Jackson Laboratory) which express three copies of a wild-type human peripheral myelin protein 22 (PMP22) gene (Verhamme, Camiel, et al. Journal of Neuropathology & Experimental Neurology 70.5 (2011): 386-398). Mice were housed in macrolon cages with filter hoods, in a continuously air-filtered room, thereby avoiding contamination. During experiments, paired animals were caged at a constant temperature with a day/night cycle of 12/12 hours. Animals were fed (control tap water and nutrition) ad libitum. Animal protocol is approved by the Animal Studies Committee of Languedoc Roussillon. This protocol and the laboratory procedures comply with French legislation, which implements the European Directives (Reference Number: D3417223, APAFIS #23920-2020020320279696 v3). Animal health was followed on a daily basis to ensure that only animals in good health enter the testing procedures and follow up the study.
as §1
On the first and last day of treatment, the neuromuscular performance of animals was tested with a rotarod test, grip test and sciatic nerve electrophysiology test. After the last treatment at 8 weeks, these tests were repeated, and animals were sacrificed and the left sciatic nerve was sampled for histological evaluation of the number and size of […].
The rotarod test measures neuromuscular coordination by assessing the capacity of the animals to stay in balance on a rotating cylinder. Similar rotarod latency was observed between groups at the baseline (6 weeks old).

[5] = CIDP + AAT 50 mg/kg sc twice daily, Day 35
[6] = Day 35, AAT 50 mg/kg sc twice daily
[7] = baseline (6 weeks old), CMT + hAAT, individual animal

For alpha1-antitrypsin (AAT) protein, the “effect on plasma TNFα levels” value (plasma TNFα; CMT1A + AAT, day 14 and day 29) was “no effect”, the “Plasma TNFα concentration (Mean ± SEM)” value (plasma TNFα; Day 1 (baseline)) was 2.94 ± 0.17 pg/mL and the “Plasma TNFα concentration (Mean ± SEM)” value (plasma TNFα; Day 8) was 3.70 ± 0.41 pg/mL. The “Plasma TNFα concentration (Mean ± SEM)” value (plasma TNFα; Day 14) was 5.15 ± 0.393 pg/mL, the “Plasma TNFα concentration (Mean ± SEM)” value (plasma TNFα; Day 29) was 10.67 ± 0.833 pg/mL and the “threshold of paw withdrawal compared to the vehicle treated group” value (CIDP mice [1]; [5]) was “increased”. For the same substance, the “Von Frey, paw withdrawal threshold (Mean ± SD)” value (CIDP mice [1]; Day 20 (baseline)) was 3.16 ± 0.95 grams, the “Von Frey, paw withdrawal threshold (Mean ± SD)” value (CIDP mice [1]; [6]) was 5.71 ± 0.41 grams and the “von Frey test, Paw withdrawal threshold, group MEAN” value (CIDP mice [1]; Baseline (Day 20)) was 3.16 grams. For the same substance, the “von Frey test, Paw withdrawal threshold, group MEAN” value (CIDP mice [1]; Day 35) was 5.80 grams, the “von Frey test, Paw withdrawal threshold, Mean/animal” value (CIDP mice [1]; Baseline (Day 20)) was 4.30 grams and 2.10 grams and 2.74 grams and 3.48 grams and the “von Frey test, Paw withdrawal threshold, Mean/animal” value (CIDP mice [1]; Day 35) was 5.60 grams and 5.24 grams and 6.21 grams and 6.14 grams. For the same substance, the “von Frey test, Paw withdrawal threshold, set 1” value (CIDP mice [1]; Baseline (Day 20)) was 4.6 grams and 2.1 grams and 3.3 grams and 4.5 grams, the “von Frey test, Paw withdrawal threshold, set 2” value (CIDP mice [1]; Baseline (Day 20)) was 2.4 grams and 1.8 grams and 2.1 grams and 2.2 grams and the “von Frey test, Paw withdrawal threshold, set 3” value (CIDP mice [1]; Baseline (Day 20)) was 6.0 grams and 2.4 grams and 2.8 grams and 3.8 grams. For the same substance, the “von Frey test, Paw withdrawal threshold, set 1” value (CIDP mice [1]; Day 35) was 5.3 grams and 5.9 grams and 7.7 grams and 5.1 grams, the “von Frey test, Paw withdrawal threshold, set 2” value (CIDP mice [1]; Day 35) was 5.1 grams and 3.7 grams and 5.3 grams and 7.0 grams and the “von Frey test, Paw withdrawal threshold, set 3” value (CIDP mice [1]; Day 35) was 6.4 grams and 6.1 grams and 5.7 grams and 6.3 grams. The “NCV compared to the vehicle treated group” value (CIDP mice [2]; CIDP + AAT 50 mg/kg sc twice daily) was “increase”, the “CMAP amplitude compared to the CIDP+vehicle treated group” value (CIDP mice [2]; [5]) was “increase” and the “Compound muscle action potential (Mean ± SD)” value (CIDP mice [2]; Day 20 (baseline)) was 3.73 ± 0.42 mV. For the same substance, the “Nerve conduction velocity (Mean ± SD)” value (CIDP mice [2]; Day 20 (baseline)) was 13.10 ± 4.49 m/s, the “Compound muscle action potential (Mean ± SD)” value (CIDP mice [2]; [6]) was 4.56 ± 0.76 mV and the “Nerve conduction velocity (Mean ± SD)” value (CIDP mice [2]; [6]) was 16.85 ± 2.43 m/s. The “Electrophysiology, Amplitude, group MEAN” value (CIDP mice [2]; Day 20) was 3.731 mV, the “Electrophysiology, Conduction velocity, group MEAN” value (CIDP mice [2]; Day 20) was 13.098 m/s and the “Electrophysiology, Amplitude, group MEAN” value (CIDP mice [2]; Day 35) was 4.558 mV. The “Electrophysiology, Conduction velocity, group MEAN” value (CIDP mice [2]; Day 35) was 16.851 m/s, the “Electrophysiology, Amplitude” value (CIDP mice [2]; Day 20) was 3.734 mV and 3.562 mV and 3.318 mV and 4.308 mV and the “Electrophysiology, Conduction velocity” value (CIDP mice [2]; Day 20) was 16.096 m/s and 11.057 m/s and 7.775 m/s and 17.463 m/s. For the same substance, the “Electrophysiology, T1 distal” value (CIDP mice [2]; Day 20) was 2.673 ms and 3.177 ms and 2.864 ms and 3.114 ms, the “Electrophysiology, T2 proximal” value (CIDP mice [2]; Day 20) was 3.605 ms and 4.533 ms and 4.793 ms and 3.973 ms and the “Electrophysiology, Amplitude” value (CIDP mice [2]; Day 35) was 3.490 mV and 5.146 mV and 5.068 mV and 4.527 mV. For the same substance, the “Electrophysiology, Conduction velocity” value (CIDP mice [2]; Day 35) was 16.007 m/s and 16.112 m/s and 14.881 m/s and 20.402 m/s, the “Electrophysiology, T1 distal” value (CIDP mice [2]; Day 35) was 4.089 ms and 3.902 ms and 4.177 ms and 3.970 ms and the “Electrophysiology, T2 proximal” value (CIDP mice [2]; Day 35) was 5.026 ms and 4.833 ms and 5.185 ms and 4.705 ms. For the same substance, the “Grip strength (Mean ± SD)” value ([3]; 8 weeks old (baseline, Day 1), CMT1A + AAT) was 3.35 ± 0.27 newtons, the “Grip strength, group Mean” value ([3]; 8 weeks old, CMT + hAAT 180 mg/kg/day SC) was 4.81 NEWTONS and the “Grip strength (Mean ± SD)” value ([3]; 10 weeks old (Day 15, after 2 weeks AAT 90 mg/kg sc twice daily)) was 5.47 ± 1.11 newtons. The “grip strength vs untreated CMT animals” value ([3]; 12 weeks of age, after 2-week treatment-free period, P<0.05) was “significantly higher”, the “Grip strength (Mean ± SD)” value ([3]; 12 weeks old (Day 30, after 2-week treatment-free period)) was 3.87 ± 0.36 newtons and the “grip strength vs CMT mice not treated with AAT” value ([3]; CMT mice, AAT 90 mg/kg sc twice a day, 8 to 10 weeks of age, end of treatment) was “significant increase”. The “Grip strength, group Mean” value ([3]; baseline (6 weeks old), CMT + hAAT) was 5.54 NEWTONS, the “Grip strength, Mean/animal” value [3, 7] was 4.96 NEWTONS and 4.77 NEWTONS and 6.79 NEWTONS and 6.72 NEWTONS and 6.41 NEWTONS and 4.74 NEWTONS and 4.27 NEWTONS and 5.68 NEWTONS and the “Grip strength, set 1” value [3, 7] was 6.56 NEWTONS and 5.62 NEWTONS and 7.24 NEWTONS and 5.90 NEWTONS and 4.97 NEWTONS and 4.35 NEWTONS and 6.08 NEWTONS and 6.51 NEWTONS. The “Grip strength, set 2” value [3, 7] was 3.79 NEWTONS and 4.00 NEWTONS and 7.19 NEWTONS and 8.88 NEWTONS and 7.60 NEWTONS and 6.25 NEWTONS and 2.61 NEWTONS and 3.97 NEWTONS, the “Grip strength, set 3” value [3, 7] was 4.52 NEWTONS and 4.69 NEWTONS and 5.93 NEWTONS and 5.37 NEWTONS and 6.66 NEWTONS and 3.63 NEWTONS and 4.13 NEWTONS and 6.57 NEWTONS and the “Rotarod latency, Mean/animal” value ([4]; 6 weeks old (baseline)) was 84.36 s and 71.19 s and 72.91 s. The “Rotarod latency, set 1, individual animals” value ([4]; 6 weeks old (baseline)) was 85.0 s and 51.4 s and 59.6 s, the “Rotarod latency, set 2, individual animals” value ([4]; 6 weeks old (baseline)) was 102.6 s and 93.4 s and 92.1 s and the “Rotarod latency, set 3, individual animals” value ([4]; 6 weeks old (baseline)) was 65.5 s and 68.8 s and 67.1 s. The “Rotarod latency, Mean/animal” value ([4]; 8 weeks old) was 49.76 s and 64.65 s and 56.12 s, the “Rotarod latency, set 1, individual animals” value ([4]; 8 weeks old) was 62.1 s and 83.2 s and 46.0 s and the “Rotarod latency, set 2, individual animals” value ([4]; 8 weeks old) was 35.7 s and 39.5 s and 46.0 s. For the same substance, the “Rotarod latency, set 3, individual animals” value ([4]; 8 weeks old) was 51.5 s and 71.3 s and 76.4 s, the “rotarod latency compared to the control group” value ([4]; CMT1A mice treated with AAT, 8 weeks old) was “improvement” and the “Rotarod latency (Mean ± SEM)” value ([4]; 6 weeks old (baseline)) was 76.15 ± 4.13 s. For the same substance, the “Rotarod latency (Mean ± SEM)” value ([4]; 8 weeks old, AAT 50 mg/kg sc twice daily) was 56.84 ± 4.31 s.
